In patent publication US20130272962A1, “STAINING AGENT FOR CORNEAL STAINING” (FLUORON GMBH, priority 2012, published 2013):
Blank lines part the entries; values can stand above or below the compound they belong to.

Assays:
cornea = settings: Ünlü et al. 2000; Gamal Eldin et al. 1999; cited from earlier work
eukaryotes = settings: cited from earlier work
[1] = test system: Human Corneal Epithelial Cells; settings: intensified by interaction with light; Kim et al. 1999; cited from earlier work
[2] = Staining of ophthalmic membranes
[3] = Solubility of the dyestuff in liquids for application in the eye; type: physicochemical; settings: for solubility in liquids suitable for application in the anterior and posterior region of the eye: balanced salt solution (BSS), water for injection; for solubility in liquids that are heavier than water: ≧1.01 g/cm^3, e.g. polyethylene glycol
[4] = test system: Human Retinal Pigment Epithelium in Vitro; settings: Wu et al. 2005; cited from earlier work
[5] = Ito et al. 2004; cited from earlier work
[6] = Cahen 1964; product information BLURHEX; cited from earlier work
[7] = test system: Human Retinal Pigment Epithelial Cells; settings: Veckeneer et al. 2002 (rabbit eyes); Rezai et al. 2004; cited from earlier work

Structure (SMILES): CN(C)c1ccc(C(=C2C=CC(=[N+](C)C)C=C2)c2ccc(N(C)C)cc2)cc1 [Gentian violet]
corneal oedema (cornea): cause corneal oedemas

Structure (SMILES): [2H]O[2H] [Heavy water, D2O]
concentration in water tolerated by eukaryotes (eukaryotes): ≤ 20%

Structure (SMILES): O=C([O-])c1c(Cl)c(Cl)c(Cl)c(Cl)c1-c1c2cc(I)c(=O)c(I)c-2oc2c(I)c([O-])c(I)cc12.[Na+].[Na+] [Rose bengal]
cytotoxicity [1]: cytotoxic

solubility in liquids suitable for application in the anterior and posterior region of the eye [3]: very readily soluble
solubility in liquids that are heavier than water [3]: very readily soluble
Structure (SMILES): CCN(CC)c1ccc(C(=C2C=CC(=[N+](CC)Cc3cccc(S(=O)(=O)[O-])c3)C=C2)c2ccc(N(CC)Cc3cccc(S(=O)(=O)O)c3)cc2)cc1 [Acid Violet 17]
coloring of the inner limiting membrane (ILM) and the anterior and posterior lens capsules [2]: capable of coloring both the inner limiting membrane (ILM) and the anterior and posterior lens capsules
staining of the cornea or constituents thereof [2]: capable of staining the cornea or constituents thereof

Structure (SMILES): CC1(C)C(/C=C/C=C/C=C/C=C2\N(CCCCS(=O)(=O)O)c3ccc4ccccc4c3C2(C)C)=[N+](CCCCS(=O)(=O)[O-])c2ccc3ccccc3c21 [ICG, indocyanine green]
phototoxicity [4]: phototoxic
cytotoxicity [5]: cytotoxic

Structure (SMILES): Cc1cc(-c2ccc(/N=N/c3c(S(=O)(=O)O)cc4cc(S(=O)(=O)O)cc(N)c4c3O)c(C)c2)ccc1/N=N/c1c(S(=O)(=O)O)cc2cc(S(=O)(=O)O)cc(N)c2c1O [trypan blue]
teratogenic or mutagenic effect [6]: teratogenic or mutagenic effect
cytotoxicity [7]: cytotoxic

solubility in liquids suitable for application in the anterior and posterior region of the eye [3]: very readily soluble
solubility in liquids that are heavier than water [3]: very readily soluble
Structure (SMILES): CCOc1ccc(Nc2ccc(/C(=C3C=C/C(=[N+](/CC)Cc4cccc(S(=O)(=O)[O-])c4)C=C/3C)c3ccc(N(CC)Cc4cccc(S(=O)(=O)[O-])c4)cc3C)cc2)cc1.[Na+] [BBG, Brilliant Blue G]
coloring of the inner limiting membrane (ILM) and the anterior and posterior lens capsules [2]: capable of coloring both the inner limiting membrane (ILM) and the anterior and posterior lens capsules
staining of the cornea or constituents thereof [2]: capable of staining the cornea or constituents thereof
